Common to all, as to assay type: functional, cell-based
Assay [1] concerns MCF7. The assay is described as follows: Antiproliferative activity against human MCF7 cells after 24 to 72 hrs by MTT assay. In general terms: Formazan colour is commonly taken as a measure of viable cells.
Assay [2] concerns MDA-MB-231. Briefly: Antiproliferative activity against human MDA-MB-231 cells after 24 to 72 hrs by MTT assay.
Assay [3] relates to MDA-MB-231. The assay is described as follows: Antiproliferative activity against human MDA-MB-231 cells after 72 hrs by MTT assay. Particulars: MDA-MB-231, 72 h.
Assay [4] has as its system MCF7. Briefly: Antiproliferative activity against human MCF7 cells after 72 hrs by MTT assay. Particulars: MCF7, 72 h.

These results are taken from ChEMBL document CHEMBL1921753, “Semisynthesis and biological evaluation of ganodermanontriol and its stereoisomeric triols” (J Nat Prod, 2011).

The term IC50 denotes the concentration at which inhibition is half-maximal. A high value points to a need for much substance. Take `C[C@H](CC[C@@H](O)[C@@](C)(O)CO)[C@H]1CC[C@@]2(C)C3=CC[C@H]4C(C)(C)C(=O)CC[C@]4(C)C3=CC[C@]12C`: the IC50 in the assay on MCF7 [1] amounted to 24.1 µM; with MDA-MB-231 [2], 33.8 µM.

As for `C[C@H](CC[C@H](O)[C@@](C)(O)CO)[C@H]1CC[C@@]2(C)C3=CC[C@H]4C(C)(C)C(=O)CC[C@]4(C)C3=CC[C@]12C`, the IC50 in the assay with MCF7 [1] stood at 16.3 µM; with MDA-MB-231 [2], 36.7 µM.

In the case of `C[C@H](CC[C@@H](O)[C@](C)(O)CO)[C@H]1CC[C@@]2(C)C3=CC[C@H]4C(C)(C)C(=O)CC[C@]4(C)C3=CC[C@]12C`, the IC50 worked out at 24.1 µM with MCF7 [1] and 11.3 µM in the assay on MDA-MB-231 [2].

As to `C[C@H](CC[C@H](O)[C@](C)(O)CO)[C@H]1CC[C@@]2(C)C3=CC[C@H]4C(C)(C)C(=O)CC[C@]4(C)C3=CC[C@]12C` [GANODERMANONTRIOL], the IC50 came out at 9.7 µM with MDA-MB-231 [3] and 5.8 µM with MCF7 [4].
